Assay results from patent publication US9802927B2, “Oxadiazine compounds and methods of use thereof” (Denali Therapeutics, Inc., priority 2015, dated 2017).

The compounds below were run on Aβ42 (assay: In vitro cell screening assay in H4 cells expressing human APP751: Aβ42 by sandwich ELISA). Details: compounds 0.003-10 μM, incubated overnight (16-18 h), sandwich ELISA of supernatant.
Format: cell-based
In short: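 Secreted Aβ42 measured by sandwich ELISA, C-terminal-specific capture and 4G8-HRP detection, TMB read at 450 nm, from supernatants of APP751-expressing H4 cells exposed overnight (16-18 h) to 0.003-10 μM compound in Pro293 medium, 0.33% DMSO. Data scaled between DMSO and DAPT controls; EC50 from variable-slope nonlinear regression.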

Row | EC50 [nM] | Compound
1 | 38.4 | COc1nc(C2=NOCC(c3cc4ccccc4o3)N2)ccc1-n1cnc(C)c1 (single isomer, unassigned; (+)) [Example 186B, (+)-5-(benzofuran-2-yl)-3-(6-methoxy-5-(4-methyl-1H-imidazol-1-yl)pyridin-2-yl)-5,6-dihydro-4H-1,2,4-oxadiazine]
2 | 24 | COc1nc(C2=NOCC(c3cn(C)c4ccccc34)N2)ccc1-n1cnc(C)c1 (single isomer, unassigned; (+)) [Example 189A, (+)-3-(6-methoxy-5-(4-methyl-1H-imidazol-1-yl)pyridin-2-yl)-5-(1-methyl-1H-indol-3-yl)-5,6-dihydro-4H-1,2,4-oxadiazine]
3 | 19.5 | COc1nc(C2=NOCC(c3cn(C)c4ccc(F)cc34)N2)ccc1-n1cnc(C)c1 (single isomer, unassigned; (+)) [Example 190B, (+)-5-(5-fluoro-1-methyl-1H-indol-3-yl)-3-(6-methoxy-5-(4-methyl-1H-imidazol-1-yl)pyridin-2-yl)-5,6-dihydro-4H-1,2,4-oxadiazine]
4 | 6.9 | COc1nc(C2=NOCC(c3cn(C)c4cccc(F)c34)N2)ccc1-n1cnc(C)c1 (single isomer, unassigned; (+)) [Example 191A, (+)-5-(4-fluoro-1-methyl-1H-indol-3-yl)-3-(6-methoxy-5-(4-methyl-1H-imidazol-1-yl)pyridin-2-yl)-5,6-dihydro-4H-1,2,4-oxadiazine]
5 | 8.5 | COc1nc(C2=NOCC(c3cn(C)c4cc(F)ccc34)N2)ccc1-n1cnc(C)c1 (single isomer, unassigned; (+)) [Example 192B, (+)-5-(6-fluoro-1-methyl-1H-indol-3-yl)-3-(6-methoxy-5-(4-methyl-1H-imidazol-1-yl)pyridin-2-yl)-5,6-dihydro-4H-1,2,4-oxadiazine]
6 | 4.9 | COc1nc(C2=NOCC(c3cn(C)c4ccc(Cl)cc34)N2)ccc1-n1cnc(C)c1 (single isomer, unassigned; (+)) [Example 193B, (+)-5-(5-chloro-1-methyl-1H-indol-3-yl)-3-(6-methoxy-5-(4-methyl-1H-imidazol-1-yl)pyridin-2-yl)-5,6-dihydro-4H-1,2,4-oxadiazine]
7 | 7.7 | COc1nc(C2=NOCC(c3cn(C)c4cc(Cl)ccc34)N2)ccc1-n1cnc(C)c1 (single isomer, unassigned; (+)) [Example 194A, (+)-5-(6-chloro-1-methyl-1H-indol-3-yl)-3-(6-methoxy-5-(4-methyl-1H-imidazol-1-yl)pyridin-2-yl)-5,6-dihydro-4H-1,2,4-oxadiazine]
8 | 163 | COc1nc(C2=NOCC(c3cn(C)c4ncccc34)N2)ccc1-n1cnc(C)c1 (single isomer, unassigned; (+)) [Example 195B, (+)-3-(6-methoxy-5-(4-methyl-1H-imidazol-1-yl)pyridin-2-yl)-5-(1-methyl-1H-pyrrolo [2,3-b]pyridin-3-yl)-5,6-dihydro-4H-1,2,4-oxadiazine]
9 | 22.5 | COc1nc(C2=NOCC(c3cn(C(C)C)c4cccc(F)c34)N2)ccc1-n1cnc(C)c1 (single isomer, unassigned; (+)) [Example 196A, (+)-5-(4-fluoro-1-isopropyl-1H-indol-3-yl)-3-(6-methoxy-5-(4-methyl-1H-imidazol-1-yl)pyridin-2-yl)-5,6-dihydro-4H-1,2,4-oxadiazine]
10 | 3.4 | COc1nc(C2=NOCC(c3cn(C)c4cc(C(F)(F)F)ccc34)N2)ccc1-n1cnc(C)c1 (single isomer, unassigned; (+)) [Example 197A, (+)-3-(6-methoxy-5-(4-methyl-1H-imidazol-1-yl)pyridin-2-yl)-5-(1-methyl-6-(trifluoromethyl)-1H-indol-3-yl)-5,6-dihydro-4H-1,2,4-oxadiazine]
11 | 154 | COc1nc(C2=NOCC(c3cn(C)c4ccccc34)N2C)ccc1-n1cnc(C)c1 (single isomer, unassigned; (+)) [Example 200A, (+)-3-(6-methoxy-5-(4-methyl-1H-imidazol-1-yl)pyridin-2-yl)-4-methyl-5-(1-methyl-1H-indol-3-yl)-5,6-dihydro-4H-1,2,4-oxadiazine]
12 | 256 | COc1nc(C2=NOCC(c3nc4ccccc4o3)N2)ccc1-n1cnc(C)c1 (single isomer, unassigned; (+)) [Example 203B, (+)-2-(3-(6-methoxy-5-(4-methyl-1H-imidazol-1-yl)pyridin-2-yl)-5,6-dihydro-4H-1,2,4-oxadiazin-5-yl)benzo[d]oxazole]
13 | 27 | COc1nc(C2=NOCC(c3cc4ccccc4n3C)N2)ccc1-n1cnc(C)c1 (single isomer, unassigned; (+)) [Example 205B, (+)-3-(6-methoxy-5-(4-methyl-1H-imidazol-1-yl)pyridin-2-yl)-5-(1-methyl-1H-indol-2-yl)-5,6-dihydro-4H-1,2,4-oxadiazine]
14 | 5 | COc1nc(C2=NOCC(c3cn(C)c4ncc(C(F)(F)F)cc34)N2)ccc1-n1cnc(C)c1 (single isomer, unassigned; (+)) [Example 206B, (+)-3-(6-methoxy-5-(4-methyl-1H-imidazol-1-yl)pyridin-2-yl)-5-(1-methyl-5-(trifluoromethyl)-1H-pyrrolo [2,3-b]pyridin-3-yl)-5,6-dihydro-4H-1,2,4-oxadiazine]
15 | 74 | COc1nc(C2=NOCC(c3nc4ccccc4s3)N2)ccc1-n1cnc(C)c1 (single isomer, unassigned; (+)) [Example 208B, (+)-5-(benzo [d]thiazol-2-yl)-3-(6-methoxy-5-(4-methyl-1H-imidazol-1-yl)pyridin-2-yl)-5,6-dihydro-4H-1,2,4-oxadiazine]
16 | 789 | COc1cc(C2=NOCC(c3nc4cccc(C)c4o3)N2C)ccc1-n1cnc(C)c1 (single isomer, unassigned; (+)) [Example 212A, (+)-2-(3-(3-methoxy-4-(4-methyl-1H-imidazol-1-yl)phenyl)-4-methyl-5,6-dihydro-4H-1,2,4-oxadiazin-5-yl)-7-methylbenzo[d]oxazole]
17 | 904 | COc1nc(C2=NOCC(c3cccc(S(C)(=O)=O)c3)N2)ccc1-n1cnc(C)c1 (single isomer, unassigned; (+)) [Example 214B, (+)-3-(6-methoxy-5-(4-methyl-1H-imidazol-1-yl)pyridin-2-yl)-5-(3-(methylsulfonyl)phenyl)-5,6-dihydro-4H-1,2,4-oxadiazine]
18 | 52.7 | COc1nc(C2=NOCC(c3ccc4sc(C)nc4c3)N2)ccc1-n1cnc(C)c1 (single isomer, unassigned; (+)) [Example 215B, (+)-3-(6-methoxy-5-(4-methyl-1H-imidazol-1-yl)pyridin-2-yl)-5-(2-methylbenzo[d]thiazol-5-yl)-5,6-dihydro-4H-1,2,4-oxadiazine]
19 | 4.2 | COc1nc(C2=NOCC(c3cn(C)c4cc(F)c(Cl)cc34)N2)ccc1-n1cnc(C)c1 (single isomer, unassigned; (+)) [Example 216B, (+)-5-(5-chloro-6-fluoro-1-methyl-1H-indol-3-yl)-3-(6-methoxy-5-(4-methyl-1H-imidazol-1-yl)pyridin-2-yl)-5,6-dihydro-4H-1,2,4-oxadiazine]
20 | 2050 | COc1nc(C2=NOCC(c3ccc(S(C)(=O)=O)cc3)N2)ccc1-n1cnc(C)c1 (single isomer, unassigned; (+)) [Example 217B, (+)-3-(6-methoxy-5-(4-methyl-1H-imidazol-1-yl)pyridin-2-yl)-5-(4-(methylsulfonyl)phenyl)-5,6-dihydro-4H-1,2,4-oxadiazine]
21 | 14.1 | COc1nc(C2=NOCC(c3ccc(C)c(Cl)c3)N2)ccc1-n1cnc(C)c1 (single isomer, unassigned; (+)) [Example 218B, (+)-5-(3-chloro-4-methylphenyl)-3-(6-methoxy-5-(4-methyl-1H-imidazol-1-yl)pyridin-2-yl)-5,6-dihydro-4H-1,2,4-oxadiazine]
22 | 9.2 | COc1nc(C2=NOCC(c3cn(C(C)C)c4cc(F)ccc34)N2)ccc1-n1cnc(C)c1 (single isomer, unassigned; (+)) [Example 219A, (+)-5-(6-fluoro-1-isopropyl-1H-indol-3-yl)-3-(6-methoxy-5-(4-methyl-1H-imidazol-1-yl)pyridin-2-yl)-5,6-dihydro-4H-1,2,4-oxadiazine]
23 | 5.5 | COc1nc(C2=NOCC(c3cn(C)c4ccc(F)c(F)c34)N2)ccc1-n1cnc(C)c1 (single isomer, unassigned; (+)) [Example 220B, (+)-5-(4,5-difluoro-1-methyl-1H-indol-3-yl)-3-(6-methoxy-5-(4-methyl-1H-imidazol-1-yl)pyridin-2-yl)-5,6-dihydro-4H-1,2,4-oxadiazine]
24 | 2.9 | COc1nc(C2=NOCC(c3cn(C)c4ccc(C5CC5)cc34)N2)ccc1-n1cnc(C)c1 (single isomer, unassigned; (+)) [Example 221B, (+)-5-(5-cyclopropyl-1-methyl-1H-indol-3-yl)-3-(6-methoxy-5-(4-methyl-1H-imidazol-1-yl)pyridin-2-yl)-5,6-dihydro-4H-1,2,4-oxadiazine]
25 | 11.2 | COc1nc(C2=NOCC(c3cn(C4CC4)c4cccc(F)c34)N2)ccc1-n1cnc(C)c1 (single isomer, unassigned; (+)) [Example 222A, (+)-5-(1-cyclopropyl-4-fluoro-1H-indol-3-yl)-3-(6-methoxy-5-(4-methyl-1H-imidazol-1-yl)pyridin-2-yl)-5,6-dihydro-4H-1,2,4-oxadiazine]
26 | 6.2 | COc1nc(C2=NOCC(c3cn(C)c4cc(F)c(F)cc34)N2)ccc1-n1cnc(C)c1 (single isomer, unassigned; (+)) [Example 223B, (+)-5-(5,6-difluoro-1-methyl-1H-indol-3-yl)-3-(6-methoxy-5-(4-methyl-1H-imidazol-1-yl)pyridin-2-yl)-5,6-dihydro-4H-1,2,4-oxadiazine]
27 | 294 | COc1nc(C2=NOCC(c3ccc4ncccc4c3)N2)ccc1-n1cnc(C)c1 (single isomer, unassigned; (+)) [Example 224B, (+)-3-(6-methoxy-5-(4-methyl-1H-imidazol-1-yl)pyridin-2-yl)-5-(quinolin-6-yl)-5,6-dihydro-4H-1,2,4-oxadiazine]
